From ChEMBL document CHEMBL1132097, “Fluorobenzamidrazone thrombin inhibitors: influence of fluorine on enhancing oral absorption” (Bioorg Med Chem Lett, 1999)

How the values were obtained:
[1] = Absorption behavior was judged by the area under the curve, determined after oral dose of 30 mg/kg in rats.; assay type: ADME, organism-based; set-up: dose 30 mg/kg, route oral; settings: rat, in vivo
[2] = Absorption behavior was judged by the peak blood concentration determined after oral dose of 30 mg/kg in rats.; assay type: ADME, organism-based; set-up: dose 30 mg/kg, route oral; settings: rat
Serine protease 1 [3] = target: T1, Serine protease 1 (Bos taurus, UniProt P00760); assay: Inhibitory constant against bovine trypsin was determined in vitro
T1 sequence (P00760 whole entry): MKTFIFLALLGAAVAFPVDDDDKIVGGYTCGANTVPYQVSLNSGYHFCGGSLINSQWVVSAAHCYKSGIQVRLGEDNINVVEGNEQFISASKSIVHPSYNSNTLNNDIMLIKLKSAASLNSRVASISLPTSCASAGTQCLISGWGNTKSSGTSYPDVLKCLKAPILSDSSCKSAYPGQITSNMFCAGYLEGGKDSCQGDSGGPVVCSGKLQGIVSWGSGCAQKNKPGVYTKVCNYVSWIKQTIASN

Prothrombin [4] = target: T2, Prothrombin (Homo sapiens, UniProt P00734); assay: Inhibitory constant against human thrombin was determined in vitro
Serine protease 1 [5] = target: T1, Serine protease 1; assay: Inhibitory constant against bovine trypsin was determined in vitro.
Prothrombin [6] = target: T2, Prothrombin; assay: Inhibitory constant against human thrombin was determined in vitro.

| SMILES | AUC [1] [µM·h] | Cmax [2] [nM] | Ki (Serine protease 1 [3]) [nM] | Ki (Prothrombin [4]) [nM] | Ki (Serine protease 1 [5]) [nM] | Ki (Prothrombin [6]) [nM] |
| --- | --- | --- | --- | --- | --- | --- |
| COc1ccc2cc(S(=O)(=O)N[C@@H](Cc3ccc(C(N)=NN)cc3)C(=O)N(C)C3CCCC3)ccc2c1 | 2.62 | 1130 |  |  | 9200 | 0.06 |
| CN(C(=O)[C@H](Cc1ccc(C(N)=NN)c(F)c1)NS(=O)(=O)c1ccc2c(c1)CCCC2)C1CCCC1 | 1.63 | 1340 |  |  | 25000 | 0.9 |
| CN(C(=O)[C@H](Cc1ccc(C(N)=NN)cc1)NS(=O)(=O)c1ccc2c(c1)CCCC2)C1CCCC1 | 0.817 | 360 |  |  | 4600 | 0.1 |
| CN(C(=O)[C@H](Cc1ccc(C(N)=NN)c(F)c1)NS(=O)(=O)c1ccc2ccccc2c1)C1CCCC1 | 6.67 | 4130 |  |  | 25000 | 5.5 |
| CN(C(=O)[C@H](Cc1ccc(C(=N)NN)cc1F)NS(=O)(=O)c1ccc2c(c1)CCCC2)C1CCCC1 | 1.37 | 1030 |  |  | 3000 | 0.5 |

Results, then the molecule that gave them:

| AUC [1] [µM·h] | Cmax [2] [nM] | Ki (Serine protease 1 [3]) [nM] | Ki (Prothrombin [4]) [nM] | Ki (Serine protease 1 [5]) [nM] | Ki (Prothrombin [6]) [nM] | SMILES |
| --- | --- | --- | --- | --- | --- | --- |
| 2.23 | 1170 | 3500 | 0.2 |  |  | CCCc1ccc(S(=O)(=O)N[C@@H](Cc2ccc(C(N)=NN)cc2)C(=O)N(C)C2CCCC2)cc1 |
| 4.17 | 2780 |  |  | 22000 | 1.8 | CCCc1ccc(S(=O)(=O)N[C@@H](Cc2ccc(C(=N)NN)c(F)c2)C(=O)N(C)C2CCCC2)cc1 |
| 2.68 | 1350 |  |  | 4000 | 0.7 | CCCc1ccc(S(=O)(=O)N[C@@H](Cc2ccc(C(N)=NN)cc2F)C(=O)N(C)C2CCCC2)cc1 |
| 3.28 | 2410 |  |  | 2000 | 0.2 | COc1ccc2cc(S(=O)(=O)N[C@@H](Cc3ccc(C(N)=NN)cc3F)C(=O)N(C)C3CCCC3)ccc2c1 |
| 2.33 | 1610 |  |  | 33000 | 0.4 | CN(C(=O)[C@H](Cc1ccc(C(=N)NN)cc1)NS(=O)(=O)c1ccc2ccccc2c1)C1CCCC1 |
| 1.83 | 1630 |  |  | 11000 | 2 | CN(C(=O)[C@H](Cc1ccc(C(=N)NN)cc1F)NS(=O)(=O)c1ccc2ccccc2c1)C1CCCC1 |
